“Also recorded” adds a separate entry of the source. Read-outs that look alike come from different tables or passages of the source.
Experiments:
isolated rat uterus = assay: uterotonic activity (isolated rat uterus); settings: in words
5-HT2 receptors = target: T1, 5-HT2 receptors (Mus musculus, UniProt P35363); assay: head twitch response caused by the compound in mice; format: in vivo
T1 construct: The head twitch model in mice; from tissue; host or cells: living mice (central nervous system)
Description: The head twitch model in mice represents an experimental model for determining the hallucinogenic action of a compound (the method was described by Handley and Singh, Br.J.Pharmacol., 86, 297-303, 1985). It is believed that the response is conveyed via the 5-HT2 receptors.

[1] = acute toxicity in mice (Miller and Tainter); settings: mouse, in vivo, intravenous
Description: Exptl. Biol. Med. 57, 261 (1944).

[2] = tested on: pentobarbital-anesthetized normotensive rats; assay: blood pressure and heart rate in pentobarbital-anesthetized normotensive rats; format: in vivo, rat; settings: 450 μg/kg i.v.
[3] = target: T2, isolated rabbit thoracic aorta (serotonin) (Oryctolagus cuniculus, UniProt G1SYA7)
T2 construct: isolated rabbit thoracic aorta; from tissue; host or cells: isolated rabbit thoracic aorta

[4] = tested on: isolated rabbit thoracic aorta; assay: constriction of the isolated rabbit thoracic aorta; settings: for EC50: Oryctolagus cuniculus
pupil = assay: dilatation of the pupil in mice (Pulewka); format: in vivo; settings: in words
pithed rats = assay: vasoconstriction / diastolic pressure in pithed rats (Gillespie); format: in vivo, rat; settings: 450 μg/kg i.v.; in words

T2 sequence (G1SYA7 entry or part of it): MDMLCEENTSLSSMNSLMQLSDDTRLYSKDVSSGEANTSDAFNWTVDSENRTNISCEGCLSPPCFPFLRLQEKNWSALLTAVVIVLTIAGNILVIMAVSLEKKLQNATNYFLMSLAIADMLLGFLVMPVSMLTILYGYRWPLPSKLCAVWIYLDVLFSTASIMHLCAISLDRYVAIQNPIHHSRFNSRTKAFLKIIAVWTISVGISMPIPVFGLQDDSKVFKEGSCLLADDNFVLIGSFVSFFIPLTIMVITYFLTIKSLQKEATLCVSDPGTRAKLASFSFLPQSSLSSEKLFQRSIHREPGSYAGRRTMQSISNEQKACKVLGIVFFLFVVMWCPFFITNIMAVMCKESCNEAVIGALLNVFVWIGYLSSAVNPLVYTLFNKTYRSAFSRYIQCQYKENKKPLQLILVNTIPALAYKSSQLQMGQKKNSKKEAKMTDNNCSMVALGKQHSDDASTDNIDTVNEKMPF
T1 sequence (P35363 whole entry): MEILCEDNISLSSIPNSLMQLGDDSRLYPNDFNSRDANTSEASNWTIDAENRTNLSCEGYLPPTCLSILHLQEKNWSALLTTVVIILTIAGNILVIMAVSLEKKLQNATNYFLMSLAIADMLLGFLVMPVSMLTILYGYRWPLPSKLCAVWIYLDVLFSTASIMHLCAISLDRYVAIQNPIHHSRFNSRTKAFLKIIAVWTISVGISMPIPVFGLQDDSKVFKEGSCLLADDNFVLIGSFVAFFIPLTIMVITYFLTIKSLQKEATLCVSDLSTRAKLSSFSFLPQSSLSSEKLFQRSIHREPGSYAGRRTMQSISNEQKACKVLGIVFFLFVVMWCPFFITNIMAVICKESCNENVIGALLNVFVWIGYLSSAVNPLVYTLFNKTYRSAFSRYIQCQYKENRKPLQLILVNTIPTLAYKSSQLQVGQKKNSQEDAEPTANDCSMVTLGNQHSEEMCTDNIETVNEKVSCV

C#CCN(C)C(=O)[C@@H]1C=C2c3cccc4[nH]cc(c34)C[C@H]2N(C)C1 [Example 4, 9,10-Didehydro-N-methyl-N-(2'-propinyl)-6-methylergoline-8β-carboxamide]
uterotonic activity (isolated rat uterus): lesser than the one of methylergometrine maleate | head twitch response caused by compound (5-HT2 receptors; 0.125 to 4 mg/kg i.p., in words): caused a head twitch response in mice; also recorded: at higher doses the activity decreased (autoinhibitory effect) | dose of maximum head twitch activity (5-HT2 receptors; i.p.): 1 mg/kg | LD50 [1]: 55 mg/kg | respiratory troubles [2]: respiratory troubles could be perceived | effect on carotid artery pressure ([2]; in words): statistically non-significant changes in carotid artery pressure | reduction in heart rate ([2]; vs initial level): 20% | mode of inhibition of serotonin constriction ([3]; in words): the antagonism was of competitive nature | serotonin-antagonistic activity ([3]; inactivated α1-adrenergic receptors, 0.01 to 0.3 μM): showed a serotonin-antagonistic activity | effect on maximum activity of serotonin ([3]; inactivated α1-adrenergic receptors, higher doses): noticeable decrease of the maximum activity of serotonin | Kb ([3]; vs serotonin, inactivated α1-adrenergic receptors, smaller doses (0.1 μM), read-out: pA2 (converted)): 4.27 nM | receptors responsible for vasoconstriction ([4]; 0.39 μM (EC50)): predominantly the result of the activation of α1 -adrenergic receptors and to a lesser extent of the activation of 5-HT2 receptors | EC50 ([4]; constriction of the isolated rabbit thoracic aorta, read-out: pD2 (converted)): 389 nM | EC50 ([4]; vasoconstriction, read-out: EC50): 390 nM | constriction of the isolated rabbit thoracic aorta ([4]; in words): caused a constriction of the isolated rabbit thoracic aorta | intrinsic activity, aorta constriction ([4]; in words, vs serotonin): comparable to that of serotonin | dilatation of the pupil (pupil; dose-dependent, dose not given): dose-dependent dilatation of the pupil | behavioural effects in mice (pupil): an increased activity, tremor and piloerection | peripheral vasoconstriction (pithed rats): transient, yet extraordinarily strong peripheric vasoconstriction

From patent US5480885A, “Ergoline derivatives of 1-propinylamine, a process for the manufacture thereof and the use thereof for medicaments” (priority 1991, dated 1996)
